Source: PMC11206678, “Peptide-Alkoxyamine Drugs: An Innovative Approach to Fight Schistosomiasis: “Digging Their Graves with Their Forks”” (Pathogens, 2024)
Entries after “also recorded” stand apart in the source; their conditions may differ. Structures can show the parent of a compound that is named as a salt.

Legend:
[1] = test system: Schistosoma mansoni adult worms; assay: Viability of Schistosoma mansoni adult worms in vitro; assay type: cell-based, Schistosoma mansoni NMRI strain; conditions: 100 μg/mL, 37 °C; for Time to Kill 50% of Parasites / Time to Kill 100% of Parasites: adult worms in RPMI 1640/Tween 80/DMSO, observed up to 72 h, duplicate wells; for Activity/toxicity towards schistosomes (in words): adult worms
Description: Experiments on the viability of Schistosoma mansoni adult worms. In vitro tests were performed on Schistosoma mansoni NMRI strains. This parasite is lab maintained on Biomphalaria glabrata (BRE strain) as intermediate mollusc host and Golden Hamster (Janvier Labs, Le Genest-Saint-Isle, France) as definitive vertebrate host. Methods, for molluscs’ and hamsters’ infection and for parasite recovery, were previously described. Adult worms were recovered by hepatic perfusion technique between 42 and 47 days post hamster exposition to parasite larvae. Worms were carefully collected and disposed in 12-well Falcon® plate containing 2 mL of RPMI 1640 (supplemented with L-glutamine and Hepes 25 mM). The plates containing a minimum of 15 worms by well were then placed in an incubator chamber at 37 °C and 5% CO2. The worms sex ratio was almost balanced in each well. The drug was first dissolved in DMSO (Sigma-Aldrich) to give a 100 mg/mL mother solution. Then the stock solution was complemented with Tween 80 and RPMI to obtain the following final ratio dilution: RPMI 1640/Tween 80/DMSO and 1000/0.95/3.8, v/v/v.
All molecules were tested at a final concentration of 100 µg/mL and 10 µg/mL. A negative control consisted in adding the same RPMI 1640/Tween 80/DMSO solution, but without any drug and a positive control consisted in adding praziquantel. All molecules and control were performed in duplicates of well. The worm viability was checked after 1, 2, 3, 4, 5, 6, 7, 8, 24, 48, and 72 h after adding the molecule.

[2] = Homolysis kinetics of alkoxyamines by EPR (growth of nitroxide); assay type: physicochemical; conditions: mixture of diastereoisomers; for Homolysis rate constant kd: 0.1 mM alkoxyamine, O2 as alkyl radical scavenger; for Activation energy Ea: by Equation (2) from kd and T, A = 2.4 10^14 s^−1
Description: Preparation of alkoxyamines and reference samples. All reagents including anhydrous solvents used for the chemical synthesis were purchased from commercially available sources such as Merck, TCI, and Fluorochem, and were used without further purification. All air and/or water-sensitive reactions were carried out under an argon atmosphere with dry solvents using standard syringe-cannula/septa techniques. Routine monitoring of reactions was performed using Merck Silica gel 60 F254, aluminum-supported TLC plates; spots were visualized using UV light and ethanolic acidic para-anisaldehyde solution or ethanolic phosphomolybdic solution, followed by heating. Purifications by means of column chromatography were performed with Silica gel 60 (230–400 mesh). ^1H, ^13C, and ^19F NMR spectra were obtained in CDCl3, MeOD (with residual H2O), D2O, DMSO-d6, or C6D6 solutions on by using Bruker AC400 (400 MHz) and Bruker AC300 (300 MHz) spectrometers. High-resolution mass spectra (HRMS) have been performed using a SYNAPT G2 HDMS (Waters) mass spectrometer equipped with a pneumatically assisted atmospheric pressure ionization (API) source. The sample was ionized in positive electrospray mode under the following conditions: electrospray voltage: 2.8 kV; port voltage: 20 V; Nebulizing gas flow rate (nitrogen): 100 L/h or in negative electrospray mode under the following conditions: electrospray voltage: −2.27 kV; port voltage: −20 V; Nebulizing gas flow rate (nitrogen): 100 L/h. The mass spectra (MS) were obtained with a time-of-flight (TOF) analyzer. The exact mass measurements were carried out in triplicate with external calibration. Homolysis constants were measured by EPR on an EMX Bruker spectrometer from 10^−4 M samples in tertbutyl benzene or in a mixture of H2O-nPrOH (1:1; v:v).
Kinetic experiments. Kinetics of A1–A7 (Scheme 2) for series L and D are performed by monitoring the growth of nitroxide by Electron Paramagnetic Resonance (X-band EMX Bruker machine) in tert-butylbenzene and a water/n-PrOH (for a good solubility of the alkoxyamine) as solvents and using O2 as alkyl radical scavenger to suppress the back reaction (kc in Scheme 2) as already reported. Homolysis rate constants kd are given by Equation (1) ([nitroxide]∞ = [alkoxyamine]0 = 0.1 mM, see Table S1) and the subsequent activation energies Ea given by Equation (2). (1) lnnitroxide∞−nitroxidet/nitroxide∞=−kd·t, (2) Ea=−RTlnkd/A.

[3] = C–ON bond homolysis in t-BuPh, EPR, T (°C): A1L 128.0, A3L 125.0, A5L 130.0, A6L 125, A7L 126.5, A1D 122.5, A3D 119.8, A5D 130
[4] = C–ON bond homolysis in water/n-PrOH v/v 1:1, EPR, T (°C): A1L 95.1, A3L 94.5, A4L 94.6, A5L 94.0, A6L 94.8, A7L 94.3, A1D 93.5, A3D 92.6, A4D 95.0, A5D 94.6

Row | Molecule | Time to Kill 50% of Parasites [1] [h] | Time to Kill 100% of Parasites [1] [h] | Activity/toxicity towards schistosomes (in words) [1] | Homolysis rate constant kd [2, 3] | Homolysis rate constant kd [2, 4] | Activation energy Ea ([2]; in t-BuPh) [kJ/mol] | Activation energy Ea ([2]; in water/n-PrOH v/v 1:1) [kJ/mol] | Time to Kill 50% of Parasites ([1]; listed as praziquantel) [h]
1 | 4-(((S)-1-(((S)-1-(((S)-1-carboxy-2-phenylethyl)amino)-3-methyl-1-oxobutan-2-yl)amino)-1-oxo-3-phenylpropan-2-yl)amino)-4-oxobutanoic acid [P10L] | 6 | 24 | some activity towards schistosomes |  |  |  |  | 
2 | CC(ON1C(C)(C)CCCC1(C)C)c1ccc(NC(=O)[C@@H](Cc2ccccc2)NC(=O)OC(C)(C)C)cc1 (mixture of isomers) [A1D, tert-butyl ((2R)-1-oxo-3-phenyl-1-((4-(1-((2,2,6,6-tetramethylpiperidin-1-yl)oxy)ethyl)phenyl)amino)propan-2-yl)carbamate] |  |  |  | 9.6 10^−4 s^−1 | 1.0 10^−4 s^−1 | 132.2 | 129.0 | 
3 | CC(ON1C(C)(C)CCCC1(C)C)c1ccc(NC(=O)[C@H](Cc2ccccc2)NC(=O)OC(C)(C)C)cc1 (mixture of isomers) [A1L, tert-butyl ((2S)-1-oxo-3-phenyl-1-((4-(1-((2,2,6,6-tetramethylpiperidin-1-yl)oxy)ethyl)phenyl)amino)propan-2-yl)carbamate] |  |  |  | 11.0 10^−4 s^−1 | 1.5 10^−4 s^−1 | 133.1 | 128.4 | 
4 | CC(ON1C(C)(C)CCCC1(C)C)c1ccc(NC(=O)[C@H](Cc2ccccc2)NC(=O)[C@@H](NC(=O)[C@H](Cc2ccccc2)NC(=O)OC(C)(C)C)C(C)C)cc1 (stereo partly drawn) [A3L, tert-butyl ((2S)-1-(((2S)-3-methyl-1-oxo-1-(((2S)-1-oxo-3-phenyl-1-((4-(1-((2,2,6,6-tetramethylpiperidin-1-yl)oxy)ethyl)phenyl)amino)propan-2-yl)amino)butan-2-yl)amino)-1-oxo-3-phenylpropan-2-yl)carbamate] |  |  | inactive; also recorded: non-activity | 8.4 10^−4 s^−1 | 1.8 10^−4 s^−1 | 133.0 | 128.8 | 
5 | CC(ON1C(C)(C)CCCC1(C)C)c1ccc(NC(=O)[C@H](Cc2ccccc2)NC(=O)[C@@H](NC(=O)[C@@H](N)Cc2ccccc2)C(C)C)cc1.O=C(O)C(F)(F)F (stereo partly drawn) [A4L, (2S)-1-(((2S)-3-methyl-1-oxo-1-(((2S)-1-oxo-3-phenyl-1-((4-(1-((2,2,6,6-tetramethylpiperidin-1-yl)oxy)ethyl)phenyl)amino)propan-2-yl)amino)butan-2-yl)amino)-1-oxo-3-phenylpropan-2-aminium trifluoroacetate] | 2 | 24 | most efficient molecules |  | 1.0 10^−4 s^−1 |  | 129.3 | 
6 | CC(ON1C(C)(C)CCCC1(C)C)c1ccc(NC(=O)[C@H](Cc2ccccc2)NC(=O)[C@@H](NC(=O)[C@@H](N)Cc2ccccc2)C(C)C)cc1 (stereo partly drawn) [A5L, (2S)-2-((S)-2-amino-3-phenylpropanamido)-3-methyl-N-((2S)-1-oxo-3-phenyl-1-((4-(1-((2,2,6,6-tetramethylpiperidin-1-yl)oxy)ethyl)phenyl)amino)propan-2-yl)butanamide] | 2 | 7 | most efficient molecules | 18 10^−4 s^−1 | 1.3 10^−4 s^−1 | 132.1 | 128.3 | 
7 | CC(ON1C(C)(C)CCCC1(C)C)c1ccc(NC(=O)[C@H](Cc2ccccc2)NC(=O)[C@@H](NC(=O)[C@H](Cc2ccccc2)NC(=O)CCC(=O)OCc2ccccc2)C(C)C)cc1 (stereo partly drawn) [A6L, Benzyl 4-(((2S)-1-(((2S)-3-methyl-1-oxo-1-(((2S)-1-oxo-3-phenyl-1-((4-(1-((2,2,6,6-tetramethylpiperidin-1-yl)oxy)ethyl)phenyl)amino)propan-2-yl)amino)butan-2-yl)amino)-1-oxo-3-phenylpropan-2-yl)amino)-4-oxobutanoate] | 24 | 48 | less active; also recorded: lower activity | 11.0 10^−4 s^−1 | 1.1 10^−4 s^−1 | 132.1 | 129.1 | 
8 | O=C(C1CCCCC1)N1CC(=O)N2CCc3ccccc3C2C1 (stereo not drawn) [PZQ, praziquantel, reference compound] | 1 | 1 |  |  |  |  |  | < 1
9 | O=C(O)C(F)(F)F [TFA, reference compound] | 7 | 24 |  |  |  |  |  | 
10 | (S)-1-(((S)-1-(((S)-1-((4-ethylphenyl)amino)-1-oxo-3-phenylpropan-2-yl)amino)-3-methyl-1-oxobutan-2-yl)amino)-1-oxo-3-phenylpropan-2-aminium trifluoroacetate [P22L] |  |  | no activity |  |  |  |  | 
11 | (S)-1-(((S)-1-(((S)-1-carboxy-2-phenylethyl)amino)-3-methyl-1-oxobutan-2-yl)amino)-1-oxo-3-phenylpropan-2-aminium trifluoroacetate [P11L] |  |  | no activity |  |  |  |  | 
12 | (S)-2-((S)-2-amino-3-phenylpropanamido)-N-((S)-1-((4-ethylphenyl)amino)-1-oxo-3-phenylpropan-2-yl)-3-methylbutanamide [P25L] |  |  | no activity |  |  |  |  | 
13 | Benzyl 4-(((S)-1-(((S)-1-(((S)-1-((4-ethylphenyl)amino)-1-oxo-3-phenylpropan-2-yl)amino)-3-methyl-1-oxobutan-2-yl)amino)-1-oxo-3-phenylpropan-2-yl)amino)-4-oxobutanoate [P23L] |  |  | no activity |  |  |  |  | 
14 | L-phenylalanyl-L-valyl-L-phenylalanine [P18L] |  |  | no activity |  |  |  |  | 
